Results taken from patent publication US7109341B2, “Therapeutic amides” (Wayne State University, priority 2002, dated 2006).
Where “and” joins values, the source holds several entries; their conditions need not be identical. Identical values can stand only once. Entries after “also recorded” stand apart in the source; their conditions may differ. Like-named read-outs stand apart in the source and are kept apart here.

Key:
[1] = tested on: Mammary Adenocarcinoma 16/C; conditions: IV
From the text: (§1) Pancreatic ductal adenocarcinoma-03, mammary adenocarcinoma-16/C, mammary adenocarcinoma-17/Adr, and human melanoma LOX were used in the studies. Tumors were maintained in the mouse strain of origin (C57B1/6 for Panc-03 and C3H for the mammary tumors). Balb/c SCID mice (B and T cell deficient) were used for tumor maintenance and chemotherapy trials involving the human melanoma LOX. Tumors were transplanted into the appropriate F1 hybrid (B6D2F1=C57B 1/6 female× DBA/2 male) or the strain of origin for the chemotherapy trials. Individual mouse body weights for each experiment were within 5 grams, and all mice were over 17 grams at the start of therapy. The mice were supplied food and water ad libitum.
(§2) Animals were pooled, implanted subcutaneously with 30 to 60 mg tumor fragments by a 12 gauge trocar on day 0, and again pooled before unselective distribution to the various treatment and control groups. For early stage treatment, chemotherapy was started within 1 to 3 days after tumor implantation while the number of cells was relatively small (10^7 to 10^8 cells). For upstaged or advanced staged trials, the tumors were allowed to grow for five or more days before treatment was started. Tumors were measured with a caliper twice weekly. […] Tumor weights are estimated from two-dimensional measurements:
(§3) Tumor weight (in mg)=(a×b^2)/2, where a and b are the tumor length and width in (mm), respectively.
a) Tumor growth delay (T−C value), where T is the median time (in days) required for the treatment group tumors to reach a predetermined size (e.g., 1,000 mg), and C is the median time (in days) for the control group tumors to reach the same size. Tumor-free survivors were are excluded from these calculations (cures are tabulated separately).
(§4) b) Calculation of tumor cell kill for subcutaneously (SC) growing tumors. […] The conversion of the T−C values to log10 cell kill is possible because the Td of tumors re-growing post treatment (Rx) approximates the Td values of the tumors in untreated control mice.
(§5) It should be noted that an activity rating of +++ to ++++ is needed to effect partial regression (PR) or complete regression (CR) of 100 to 300 mg size masses of most transplanted solid tumors of mice. Thus, an activity rating of + or ++ would not be scored as active by usual clinical criteria. A PR is a reduction in tumor mass to less than 50% of pretreatment size. A CR is a reduction in tumor mass to below palpable size (i.e., reduction to zero detectable mass).
(§6) The T/C value in percent is an indication of anti-tumor effectiveness: A T/C=0% means no tumor growth. A T/C=100% means no anti-tumor activity, i.e., the treated and control tumors grew equally. […] A T/C value<10% is considered to indicate highly significant anti-tumor activity, and is the level used by NCI to justify a clinical trial if toxicity, formulation, and certain other requirements are met (termed DN-2 level activity).
(§7) Compounds as their sodium salts were prepared in a 1% sodium bicarbonate solution, H2O or phosphate buffered saline (PBS), with pH adjusted to 7.0 to 7.5 with HCl, and administered intravenously (IV) or orally (PO), at injection volumes of 0.2 mL per injection.

Human Melanoma LOX = conditions: Cage 2; IV; qd 1–6, BID 7; total 700 mg/kg
[2] = Water solubility noted on drug preparation for injection; type: physicochemical; conditions: for Preparation: state of the injection preparation: white solid + 3% EtOH + 1% POE + 0.25% NaHCO3 + saline, pH = 8.0
Method: as §7

[3] = tested on: Pancreatic Ductal Adenocarcinoma 03;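 note: mice carrying bilateral subcutaneous tumors, with tumor weight estimated from two-dimensional caliper readings taken twice a week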
From the text: as §1, §2, §3
a) Tumor growth delay (T−C value), where T is the median time (in days) required for the treatment group tumors to reach a predetermined size (e.g., 1,000 mg), and C is the median time (in days) for the control group tumors to reach the same size. Tumor-free survivors were are excluded from these calculations (cures are tabulated separately). This value is an important criterion of anti-tumor effectiveness because it allows the quantification of tumor cell kill.
as §4, §5, §6, §7
Thus, for this test, all compounds initially were to be given IP, in an attempt to identify a suitable alternate route of administration.

[4] = Cage 4, d1, 3–5, 7, 9, 11, 13, 15, total 1610 mg/kg
[5] = Cage 5, d1, 3–7, 9, total 665 mg/kg
[6] = Cage 8, 135 mg/kg IP day 3, then SC days 5, 7, 11, 13, 15, total 615 mg/kg
[7] = Cage 9, IP, 80 mg/kg/inj days 3, 5, 7, 11, 13, 15, total 480 mg/kg
[8] = Cage 10, IP, 50 mg/kg/inj Q2d×7 from day 3, total 350 mg/kg
[9] = IP d 3 then SC d5, 7, 11, 13, 15, total dosage 615 mg/kg, BDF1 males
[10] = IP, Q2d: 3–15, total dosage 350 mg/kg, BDF1 males
[11] = IP, d3, 5, 7, 11, 13, 15, total dosage 480 mg/kg, BDF1 males
[12] = Cage 2, IP, 135 mg/kg day 3 only
[13] = Cage 3, IP, 80 mg/kg day 3 only
[14] = Cage 4, 50 mg/kg IP day 3, then IV Q2d×7 through day 15, total 455 mg/kg
[15] = IP d3 then IV Q2d: 5–15, total dosage 455 mg/kg, BDF1 males
[16] = IP, d 3, total dosage 80 mg/kg, BDF1 males
[17] = IP, d 3, total dosage 135 mg/kg, BDF1 males

CC(Oc1ccc(Oc2cnc3ccc(Cl)cc3n2)cc1)C(=O)NCCS(=O)(=O)[O-].[Na+] [Compound 14f (R)]
Day of Wt. Loss Nadir [1, 4]: 14 days
Drug Death (day of death) [1, 4]: 0/5
Log Cell Kill [1, 4]: 4.2
Mean Body Wt. Loss in g/mouse [1, 4]: −0.8 g/mouse
Median Tumor Burden in mg on day 7 (range) [1, 4]: 0 mg
Percent Body Weight Loss [1, 4]: −3.0%
T-C [1, 4]: 14 days
T/C % [1, 4]: 0%
Time to 1000 mg in days (range) [1, 4]: 20 days
Tumor Free on d28 [1, 4]: no cures and 0/5
day of full body weight recovery [1, 4]: ≤ 16 days
Day of Wt. Loss Nadir [1, 5]: 5 days
Drug Death (day of death) [1, 5]: 0/5
Log Cell Kill [1, 5]: 1.8
Mean Body Wt. Loss in g/mouse [1, 5]: −0.8 g/mouse
Median Tumor Burden in mg on day 7 (range) [1, 5]: 260 mg
Percent Body Weight Loss [1, 5]: −2.9%
T-C [1, 5]: 6 days
T/C % [1, 5]: 14%
Time to 1000 mg in days (range) [1, 5]: 12 days
Tumor Free on d28 [1, 5]: 0/5
Comments (activity rating) (Human Melanoma LOX): (+) (0.7–1.2)
Drug Death (day of death) (Human Melanoma LOX): no drug deaths and 0/5
Log Cell Kill (Human Melanoma LOX): 0.8
Median Tumor Burden in mg on d 9 (range) (Human Melanoma LOX): 651 mg
T-C (Human Melanoma LOX): 3.0 days
T/C % (Human Melanoma LOX): 47%
Time to 1000 mg days (range) (Human Melanoma LOX): 11.0 days
Tumor Free on d 18 (Human Melanoma LOX): 0/5

CC(Oc1ccc(Oc2ccc3ccc(Br)cc3n2)cc1)C(=O)NCC(=O)O [Compound 14h (R), {2-[4-(7-Bromo-quinolin-2-yloxy)-phenoxy]-propionylamino}acetic acid]
water solubility [2]: Low water solubility limits; also recorded: much lower water solubility
Preparation: state of the injection preparation [2]: Compound 14h (R): white solid + 3% EtOH + 1% POE + 0.25% NaHCO3 + saline → suspension (pH = 8.0); 0.5 ml/mouse/inj, IP; 0.2 ml/mouse/inj, SC.
Activity Rating [3, 6]: ++ (1.3–1.9)
T/C [3, 6]: 3%
log cell kill [3, 6]: 1.9
T/C [3, 7]: 6%
log cell kill [3, 7]: 1.7
Activity Rating [3, 8]: + (0.7–1.2)
T/C [3, 8]: 16.5%
log kill [3, 8]: 1.0
Comments (Active/Inactive) [3, 9]: Inactive
Comments (activity rating) [3, 9]: (++) (1.3–1.9)
Drug Death [3, 9]: 0/5
Log Cell Kill [3, 9]: 1.9
Median Tumor Burden in mg on d17 [3, 9]: 63 mg
T-C [3, 9]: 13 days
T/C % [3, 9]: 3%
Time to 1000 mg [3, 9]: 28 days
Tumor Free on 148 [3, 9]: 0/5
Comments (Active/Inactive) [3, 10]: Active
Comments (activity rating) [3, 10]: (+) (0.7–1.2)
Drug Death [3, 10]: 0/5
Log Cell Kill [3, 10]: 1.0
Median Tumor Burden in mg on d17 [3, 10]: 304 mg
T-C [3, 10]: 7 days
T/C % [3, 10]: 16.5%
Time to 1000 mg [3, 10]: 22 days
Tumor Free on 148 [3, 10]: 0/5
Comments (Active/Inactive) [3, 11]: Active
Comments (activity rating) [3, 11]: (++) (1.3–1.9)
Drug Death [3, 11]: 0/5
Log Cell Kill [3, 11]: 1.7
Median Tumor Burden in mg on d17 [3, 11]: 108 mg
T-C [3, 11]: 12 days
T/C % [3, 11]: 6%
Time to 1000 mg [3, 11]: 27 days
Tumor Free on 148 [3, 11]: 0/5
Day of Wt. Loss Nadir ([3]; mouse, in vivo): 9 days and 10 days and 8 days
day of full weight recovery ([3]; mouse, in vivo): 20 days and 15 days
day of weight loss nadir ([3]; mouse, in vivo): 9 days and 10 days and 8 days
weight loss nadir ([3]; mouse, in vivo): −13.3%

CC(Oc1ccc(Oc2cnc3ccc(Cl)cc3n2)cc1)C(=O)NCC(=O)O [Compound 14i (R), {2-{4-(7-Chloro-quinoxalin-2-yloxy)-phenoxy}propionylamino}acetic acid]
water solubility [2]: good water solubility
Preparation: state of the injection preparation [2]: Compound 14i (R): white solid + 3% EtOH + 1% POE + 0.25% NaHCO3 + saline → solution (pH = 8.0); 0.5 ml/mouse/inj, IP; 0.2 ml/mouse/inj, IV.
Activity Rating [3, 12]: + (0.7–1.2)
T/C [3, 12]: 10%
log cell kill [3, 12]: 1.1
Activity Rating [3, 13]: + (0.7–1.2)
T/C [3, 13]: 37%
day of death [3, 13]: 4 days
deaths [3, 13]: one injection death
log kill [3, 13]: 0.7
Activity Rating [3, 14]: ++ (1.3–1.9)
T/C [3, 14]: 10% and 8%
day of full weight recovery [3, 14]: ≤ 11 days
day of weight loss nadir [3, 14]: 7 days
log kill [3, 14]: 1.6
Comments (Active/Inactive) [3, 15]: Active
Comments (activity rating) [3, 15]: (++) (1.3–1.9)
Drug Death [3, 15]: 0/5
Log Cell Kill [3, 15]: 1.6
Median Tumor Burden in mg on d17 [3, 15]: 151 mg
T-C [3, 15]: 11 days
T/C % [3, 15]: 8%
Time to 1000 mg [3, 15]: 26 days
Tumor Free on 148 [3, 15]: 0/5
Comments (Active/Inactive) [3, 16]: Active
Comments (activity rating) [3, 16]: (+) (0.7–1.2)
Drug Death [3, 16]: 1/5
Drug Death (day of death) [3, 16]: (d4)
Log Cell Kill [3, 16]: 0.7
Median Tumor Burden in mg on d17 [3, 16]: 675 mg
T-C [3, 16]: 5 days
T/C % [3, 16]: 37%
Time to 1000 mg [3, 16]: 20 days
Tumor Free on 148 [3, 16]: 0/5
Comments (Active/Inactive) [3, 17]: Active
Comments (activity rating) [3, 17]: (+) (0.7–1.2)
Drug Death [3, 17]: 0/5
Log Cell Kill [3, 17]: 1.1
Median Tumor Burden in mg on d17 [3, 17]: 189 mg
T-C [3, 17]: 7.5 days
T/C % [3, 17]: 10%
Time to 1000 mg [3, 17]: 22.5 days
Tumor Free on 148 [3, 17]: 0/5
Day of Wt. Loss Nadir ([3]; mouse, in vivo): 7 days and 4 days
day of full weight recovery ([3]; mouse, in vivo, ip, 135 mg/kg): ≤ 9 days
day of weight loss nadir ([3]; mouse, in vivo, ip, 135 mg/kg): 7 days
toxicity observations ([3]; mouse, in vivo, ip, 135 mg/kg): prolonged pain response
